Measured values from paper PMC8058344, “ARIH1 signaling promotes anti-tumor immunity by targeting PD-L1 for proteasomal degradation” (Nature Communications, 2021).

Legend:
[1] = target: EGFR L858R (Homo sapiens, UniProt P00533, L858R); test: In vitro kinase specificity profiling; type: biochemical
[2] = test system: 4T1 tumor xenograft; test: 4T1 tumor xenograft model with ES-072 and/or anti-CTLA4; type: in vivo, BALB/c mice
Protocol: Fig. 6 ARIH1 promotes anti-tumor immunity via PD-L1 degradation. a Immunoblot of PD-L1 and ARIH1 (HA) in H1975 cells transfected with HA-ARIH1 (WT or Y392C); HA-tagged empty vector (HA-EV) was transfected as a negative control. b Co-IP analysis for the interaction of K48-ubiquitin, ARIH1 (HA), and PD-L1 in HEK293T cells transfected with Flag-PD-L1 and HA-ARIH1 (WT or Y392C) in the presence of 10 μM MG132 for 6 h. c 4T1 cells were infected with an empty vector (CTRL) or two different ARIH1-overexpressing lentiviral preparations (OE#1 and OE#2). ARIH1 and PD-L1 levels were determined by immunoblotting. d–f Tumor growth (d, e) of CTRL (n = 10) and ARIH1-OE cells (n = 11) in BALB/c mice and final tumor weights (f). […]
For xenograft model with 4T1 cells and combination therapy with ES-072 and anti-CTLA4, 5 × 10^5 4T1 cells suspended in 50 μL PBS and Matrigel (1 : 1 v/v) were injected into the fourth breast fat pad. On days 3 after injection, tumor size was measured and calculated by using the formula 1/2 × length × width^2. […]
Excised tumors were digested in collagenase/hyaluronidase and DNase at 37 °C for 45 min to make cell suspension with a 45 μm filter (BD Bioscience). […] Data acquisition was performed using flow cytometry (Beckman Coulter Cytoflex) and data were analyzed using CytExpert V2.3 software. […]

Chain of EGFR L858R (P00533 25-1210 L858R): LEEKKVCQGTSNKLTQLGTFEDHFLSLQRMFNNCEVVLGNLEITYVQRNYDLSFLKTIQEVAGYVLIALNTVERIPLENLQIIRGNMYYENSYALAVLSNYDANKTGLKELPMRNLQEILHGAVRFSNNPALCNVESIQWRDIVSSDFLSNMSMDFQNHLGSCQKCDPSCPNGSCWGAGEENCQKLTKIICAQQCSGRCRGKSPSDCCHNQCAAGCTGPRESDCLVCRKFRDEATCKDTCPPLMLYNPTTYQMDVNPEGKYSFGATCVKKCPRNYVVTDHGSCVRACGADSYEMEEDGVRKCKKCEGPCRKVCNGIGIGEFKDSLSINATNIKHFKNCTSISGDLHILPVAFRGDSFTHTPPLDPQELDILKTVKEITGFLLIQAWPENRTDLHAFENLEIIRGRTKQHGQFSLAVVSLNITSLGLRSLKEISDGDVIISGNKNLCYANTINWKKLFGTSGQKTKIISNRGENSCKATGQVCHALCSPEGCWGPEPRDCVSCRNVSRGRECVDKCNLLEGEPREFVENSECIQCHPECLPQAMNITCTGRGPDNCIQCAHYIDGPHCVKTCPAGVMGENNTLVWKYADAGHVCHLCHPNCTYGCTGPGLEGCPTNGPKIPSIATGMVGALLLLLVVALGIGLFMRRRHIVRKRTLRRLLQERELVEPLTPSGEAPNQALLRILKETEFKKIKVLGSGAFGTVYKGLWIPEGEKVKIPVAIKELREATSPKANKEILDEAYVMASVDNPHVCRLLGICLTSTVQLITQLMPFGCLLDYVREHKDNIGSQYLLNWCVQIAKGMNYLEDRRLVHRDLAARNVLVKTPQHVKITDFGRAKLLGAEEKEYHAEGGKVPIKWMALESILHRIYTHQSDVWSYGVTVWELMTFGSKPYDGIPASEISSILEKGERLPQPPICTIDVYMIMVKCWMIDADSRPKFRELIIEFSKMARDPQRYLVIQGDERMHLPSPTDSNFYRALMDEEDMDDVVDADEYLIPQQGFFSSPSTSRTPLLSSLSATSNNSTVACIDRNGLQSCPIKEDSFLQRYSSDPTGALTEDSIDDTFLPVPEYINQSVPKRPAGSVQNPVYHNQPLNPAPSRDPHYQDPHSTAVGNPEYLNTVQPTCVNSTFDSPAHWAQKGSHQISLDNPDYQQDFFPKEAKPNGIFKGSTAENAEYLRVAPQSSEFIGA

Structure (SMILES): C=CC(=O)Nc1cccc(Nc2nc(Nc3ccc(N4CCN(C)CC4)nc3OC)ncc2C(F)(F)F)c1 [ES-072]
- IC50 [1]: 2.7 nM
- tumor growth ([2]; 4T1 cells in BALB/c mice, ES-072 60 mg/kg i.g. daily, anti-CTLA4 100 μg i.p. day 7, 10, 13): significantly decreased
- PD-L1 levels in tumor lysates ([2]; 4T1 tumors, western blotting): decreased
